Patent US20260207629A1, “COMPOSITION FOR IMPROVING SKIN COMPRISING CARNITINESALICYLATE AS AN ACTIVE INGREDIENT” (LG H&H CO., LTD., priority 2022, published 2026)
One block for each molecule: values may come before it.

Experiments:
[1] = test system: C. acnes ribotype 5 (strain HL043PA1); test: Minimum inhibitory concentration (MIC) against C. acnes; type: cell-based; details: Cutibacterium acnes; C. acnes ribotype 5 strain HL043PA1, 72 h incubation, OD600, growth inhibited by more than 90%
Experimental: The minimum inhibitory concentrations (MICs) of CA-SA and magnolol against C. acnes were measured and compared with an antibiotic (clindamycin) and non-antibiotic agents (benzoyl peroxide and salicylic acid).
C. acnes ribotype 5 (strain HL043PA1) was cultured in a reinforced Clostridial broth medium (BD Diagnostics, Franklin Lakes, NJ) in an anaerobic environment (37° C., 175 rpm). Thereafter, each sample was dissolved in water or dimethyl sulfoxide (DMSO) and serially diluted two-fold, and 7.5 μL of the resulting solution was added to 142.5 μL of a bacterial suspension containing 7.5×10^5 CFU/mL, and incubated for 72 h. Thereafter, turbidity (OD600) was measured (Synergy 2 Multi-Mode Microplate Reader (BioTek Instrument, Winooski, VT)) to determine the MIC that inhibited bacterial growth by more than 90%.

[2] = test system: erythema induced by 1% sodium dodecyl sulfate (SDS); test: Skin erythema recovery after SDS erythema induction (Mexameter erythema index); type: in vivo, human; details: emulsion with magnolol 0.02% by weight, twice a day for 12 days, forearm, vs vehicle application group
Experimental: To evaluate the erythema recovery efficacy, an erythema index was evaluated before erythema induction, after erythema induction, and 12 days after product use in nine volunteers aged 25 to 35 years. Erythema was induced by applying 1% sodium dodecyl sulfate (SDS) dilution to the forearm for 24 hours, and an emulsion comprising CA-SA 5% by weight of, an emulsion comprising magnolol 0.02% by weight of, an emulsion comprising 5% CA-SA and 0.02% magnolol by weight, and an emulsion containing neither CA-SA nor magnolol (vehicle) was repeatedly applied to the same area twice a day, in the morning and evening, for 12 days.
The erythema index was measured using a Mexameter (MX 18, Courage+Khazaka electronic GmbH, Germany). The erythema index recovery rate was calculated using the following formula, and the effect was compared in terms of the percentage value increase in the erythema index recovery rate of the emulsion application group including each sample relative to the erythema index recovery rate of the vehicle application group (relative recovery rate).
In order to confirm the synergistic effect of CA-SA and magnolol, the predicted values (Colby values) and the actual measurement values were compared using the Colby Equation in the same manner as in Experimental Example 3, and the results are shown in Table 5.

stratum corneum (SC) = test: Stratum corneum softening, tape stripping test on volunteer's skin; type: in vivo, human; details: magnolol 0.2 mg/ml, 50 μl solution on skin for 3 h, SC protein increase relative to control
Experimental: To evaluate the softening efficacy on the stratum corneum (SC) of CA-SA and magnolol, a tape stripping test was performed on the SC.
After marking an application site on a volunteer's skin in advance, 50 μl of a solution including CA-SA and/or magnolol at the concentration shown in Table 4 was applied, and after three hours the skin surface was wiped to remove any remaining substances. A solution that included none of the evaluated substances was used as a control. A D-squame adhesive tape disk (CuDerm, Dallas, TX) was attached to the test site, and a cylindrical weight was used to apply a pressure of 150 g/cm^2 for three seconds, and then the pressure was removed and the tape was removed from the skin. Three tape strips were obtained from each marked site.
After collecting the tape strips in a polystyrene petri dish (Thermo Fisher), in order to perform keratinolysis quantification, 1 ml of 1 M NaOH was added to each petri dish and the dish was shaken for two hours. Thereafter, 75 μl of the solution was transferred to three wells (96-well plate, Corning), and each was neutralized with an equivalent volume of 1 M HCl. […] After 15 minutes, the optical density at 595 nm (OD 595 nm) was measured using an empty well as a correction value, and the amount of SC protein was quantified using a γ-globulin standard (Bio-Rad). […]

MMP-1 = test: Inhibition of MMP-1 expression induced by C. acnes lysate in HaCaT cells (ELISA); type: cell-based, human; details: magnolol 4 μg/ml, 4 h pretreatment, C. acnes lysate 30 min, vs positive control
Experimental: (§1) A human epidermal keratinocyte cell line (HaCaT cells) was sub-cultured at 37° C. in a humidified atmosphere containing 5% CO2 and 95% air. The medium used was DMEM containing 10% FBS (Gibco; Thermo Fisher, Waltham MA), penicillin (100 U/ml, Gibco), and streptomycin ([…], Gibco). Separately, the acne pathogen C. acnes ribotype 5 (Strain HL043PA1) (1.36×10^9 CFU/ml, OD=1.7) was cultured to prepare a C. acnes lysate. The C. acnes lysate was used to induce the expression of MMP-1 and VEGF in HaCaT cells.
(§2) Thereafter, the C. acnes lysate and the medium were mixed at a mass ratio of 3:7, and the resulting mixture was applied to HaCaT cells for 30 minutes. The supernatant was collected, and the concentrations of MMP-1 and VEGF were measured by enzyme-linked immunosorbent assay (ELISA) (R&D Systems Inc., Minneapolis, MN) using the manufacturer's protocol. […] The experimental group treated only with the C. acnes lysate was set as the positive control group, and the reduction value of the sample treatment group compared to the positive control group was calculated and is shown in Table 3. […]
(§3) Colby Equation: E=(A+B)−(A*B/100); E: predicted value; A: efficacy of active ingredient A; B: efficacy of active ingredient B. When the actual measurement value is greater than the predicted value, it is determined that there is a synergistic effect.

SZ95 cells = test: Lipid production inhibition in testosterone-treated SZ95 cells (Nile red); type: cell-based; details: magnolol 0.5 μg/ml, 48 h, vs positive control
Experimental: It was evaluated whether CA-SA and/or magnolol could control sebum secretion by inhibiting lipid production.
SZ95 cells, which are […] sebaceous cells, were cultured and maintained in a humidified atmosphere containing 5% CO2 and 95% air at 37° C. The medium used was Dulbecco's Modified Eagle Medium (DMEM)/Ham's F12 medium (Gibco) supplemented with 10% fetal bovine serum (FBS) and 5 ng/ml recombinant human epidermal growth factor (Invitrogen; Thermo Fisher, Waltham MA). After performing sub-confluent culture, cells were harvested with 0.05% trypsin-ethylenediaminetetraacetic acid (EDTA) (Gibco) and passaged, and cells obtained from the second passage were used.
The cells were seeded at 1×10^5 cells per well in a 24-well plate (Greiner, Frickenhausen, Germany) and cultured at 37° C. and 5% CO2 for 24 h. Thereafter, the cells were treated with 2×10^−8 M testosterone for 24 h to stimulate lipid production. […]
The well plate was covered with aluminum foil to block light, and fluorescence was measured at Ex/Em=550/580 nm using a microplate reader (BioTek Instruments, Inc.). The percentage value of the absolute fluorescence unit compared to the negative control group was used as the result value. Thereafter, the reduction value of the sample treatment group compared to the positive control group was calculated and is shown in Table 2.

VEGF = test: Inhibition of VEGF expression induced by C. acnes lysate in HaCaT cells (ELISA); type: cell-based, human; details: magnolol 4 μg/ml, 4 h pretreatment, C. acnes lysate 30 min, vs positive control
Experimental: as §1, §2, §3

MIC [1]: 2500 µg/mL
Structure (SMILES): O=C(OOC(=O)c1ccccc1)c1ccccc1 [Benzoyl peroxide, benzoyl peroxide]

MIC [1]: 156 µg/mL
Structure (SMILES): CCC[C@@H]1C[C@@H](C(=O)N[C@@H]([C@H]2O[C@H](SC)[C@H](O)[C@@H](O)[C@H]2O)[C@H](C)Cl)N(C)C1 [Clindamycin, clindamycin]

Structure (SMILES): C=CCc1ccc(O)c(-c2cc(CC=C)ccc2O)c1 [Magnolol, magnolol]
Relative recovery rate (erythema index) [2]: 16.2% | SC exfoliation rate (stratum corneum (SC)): −22.3% | MMP-1 reduction value (MMP-1): 33.6% | Reduction value (lipid production) (SZ95 cells): 3.8% | VEGF reduction value (VEGF): 21.2%

MIC [1]: 4000 to 8000 µg/mL
Structure (SMILES): O=C(O)c1ccccc1O [Salicylic acid, salicylic acid]
